# Results reported in US10494376B2, “Tetrahydroisoquinoline derived PRMT5-inhibitors” (CTXT PTY LTD, priority 2014, dated 2019).
# Structures can show the parent of a compound that is named as a salt.
# Biological target: Full-length PRMT5 enzyme (NCBI Reference sequence NP_006100.2) co-expressed with His6-MEP50 (Homo sapiens (Human), UniProt O14744)
# Experiment: Revised PRMT5 Biochemical Assay
# Conditions: 1 μM peptide substrate, 1 μM S-Adenosyl methionine, 4 hours at 37 degree Celsius, Transcreener EPIGEN fluorescence polarisation
# Experimental: Compounds of the invention may be tested for in vitro activity in the following assay: A histone H4 derived peptide is used as substrate (amino acid sequence: […]N H2). Full-length PRMT5 enzyme (NCBI Reference sequence NP_006100.2) was co-expressed with His6-MEP50 in insect cells and purified via Nickel immobilized metal affinity and gel filtration chromatography (“the enzyme”).
# The 6 μL reactions are run in Greiner brand black 384-well low volume assay plates. All reactions contained assay buffer (phosphate buffered saline, 0.01% (v/v) Tween-20, 0.01% (w/v) albumin from chicken egg white, 1 mM Dithiothreitol, 1 μM peptide substrate, 1 μM S-Adenosyl methionine, and 15 ng/reaction enzyme, with the enzyme being omitted from negative control reactions. Compounds were added in a volume of 100 nL from dilution series prepared in DMSO, positive and negative control reactions receiving the same volume DMSO without compound. The plates were sealed with adhesive seals and incubated for 4 hours at 37 degree Celsius. Reaction progress was measured using the Transcreener™ EPIGEN methyltransferase assay (BellBrook Labs, Madison, Wis.) as recommended by the manufacturer. To each reaction 2 μL detection mix were added, containing coupling enzymes, fluorescence polarisation tracer, and AMP antibody. Plates were incubated for 90 minutes before being read on a PerkinElmer EnVision™ plate reader in fluorescence polarisation mode. IC50 values were obtained from the raw readings by calculating percent inhibition (%1) for each reaction relative to controls on the same plate (% I=(I−CN)/(CP−CN) where CN/CP are the averages of the negative/positive reactions, respectively), then fitting the %1 data vs. compound concentration [I] to % I=(A+((B−A)/(1+((C/[I])^D)))) where A is the lower asymptote, B is the upper asymptote, C is the IC50 value, and D is the slope.
# Sequence of Full-length PRMT5 enzyme (NCBI Reference sequence NP_006100.2) co-expressed with His6-MEP50 (O14744 whole entry): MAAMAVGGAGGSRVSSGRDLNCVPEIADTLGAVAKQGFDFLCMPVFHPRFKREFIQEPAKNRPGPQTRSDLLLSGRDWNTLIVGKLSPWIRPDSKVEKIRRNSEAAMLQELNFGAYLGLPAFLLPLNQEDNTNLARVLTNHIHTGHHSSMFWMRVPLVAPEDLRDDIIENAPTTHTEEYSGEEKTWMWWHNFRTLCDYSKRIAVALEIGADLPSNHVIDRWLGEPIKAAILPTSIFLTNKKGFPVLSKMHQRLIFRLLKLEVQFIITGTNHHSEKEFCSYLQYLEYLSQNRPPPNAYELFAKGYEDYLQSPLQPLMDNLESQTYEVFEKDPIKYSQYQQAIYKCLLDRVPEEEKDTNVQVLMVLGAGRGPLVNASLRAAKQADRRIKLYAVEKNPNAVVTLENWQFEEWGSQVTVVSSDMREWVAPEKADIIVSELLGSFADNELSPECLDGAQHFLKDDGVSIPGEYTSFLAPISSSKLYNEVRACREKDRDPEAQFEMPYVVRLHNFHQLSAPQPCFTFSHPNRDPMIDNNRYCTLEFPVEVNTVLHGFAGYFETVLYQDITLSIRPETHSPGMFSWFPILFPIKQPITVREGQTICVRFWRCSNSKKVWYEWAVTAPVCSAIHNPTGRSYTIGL
# Sequence of Full-length PRMT5 enzyme (NCBI Reference sequence NP_006100.2) co-expressed with His6-MEP50 (Q9BQA1 whole entry partner): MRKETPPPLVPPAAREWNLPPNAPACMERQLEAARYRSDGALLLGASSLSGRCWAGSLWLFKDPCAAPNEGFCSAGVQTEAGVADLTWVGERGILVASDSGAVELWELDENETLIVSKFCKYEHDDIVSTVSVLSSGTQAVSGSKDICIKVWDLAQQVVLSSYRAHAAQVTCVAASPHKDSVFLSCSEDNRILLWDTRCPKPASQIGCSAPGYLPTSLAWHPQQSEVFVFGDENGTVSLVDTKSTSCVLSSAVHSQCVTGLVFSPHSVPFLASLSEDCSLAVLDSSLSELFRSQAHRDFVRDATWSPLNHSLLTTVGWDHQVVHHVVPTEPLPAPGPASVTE
row,IC50 [nM],Compound
1,3370,"O=C(NC[C@@H](O)[C@@H]1Cc2ccccc2CN1)c1ccc(C(=O)N2CCC(O)C2)cc1 (stereo partly drawn) [Example 47, N-((R)-2-Hydroxy-2-((S)-1,2,3,4-tetrahydroisoquinolin-3-yl)ethyl)-4-(3-hydroxypyrrolidine-1-carbonyl)benzamide]"
2,912,"CC(=O)N1CCC(N(C)C(=O)c2ccc(C(=O)NC[C@@H](O)[C@@H]3Cc4ccccc4CN3)cc2)CC1 [Example 19, N^1-(1-Acetylpiperidin-4-yl)-N^4-((R)-2-hydroxy-2-((S)-1,2,3,4-tetrahydroisoquinolin-3-yl)ethyl)-N^1 methylterephthalamide]"
3,1380,"O=C(NC[C@@H](O)[C@@H]1Cc2ccccc2CN1)c1ccc(C(=O)N2Cc3cccnc3C2)cc1 [Example 96, 4-(6,7-Dihydro-5H-pyrrolo[3,4-b]pyridine-6-carbonyl)-N-((R)-2-hydroxy-2-((S)-1,2,3,4-tetrahydroisoquinolin-3-yl)ethyl)benzamide]"
4,261,"CC(C)Oc1cc(C(=O)NC[C@@H](O)[C@@H]2Cc3ccccc3CN2)ccn1 [Example 64, N-((R)-2-hydroxy-2-((S)-1,2,3,4-tetrahydroisoquinolin-3-yl)ethyl)-2-isopropoxyisonicotinamide]"
5,511,"O=C(NC[C@@H](O)[C@@H]1Cc2ccccc2CN1)c1ccc(C(=O)N2CCC(CO)CC2)cc1 [Example 32, N-((R)-2-Hydroxy-2-((S)-1,2,3,4-tetrahydroisoquinolin-3-yl)ethyl)-4-(4-(hydroxymethyl)piperidine-1-carbonyl)benzamide]"
6,1270,"O=C(NC[C@@H](O)[C@@H]1Cc2ccccc2CN1)c1cnn(-c2cccnc2)c1 [Example 17, N-((R)-2-Hydroxy-2-((S)-1,2,3,4-tetrahydroisoquinolin-3-yl)ethyl)-1-(pyridin-3-yl)-1H-pyrazole-4-carboxamide dihydrochloride salt]"
7,262,"COC(=O)N1CCC(Oc2cc(C(=O)NC[C@@H](O)[C@@H]3Cc4ccccc4CN3)ncn2)CC1 [Example 76, Methyl 4-((6-(((R)-2-hydroxy-2-((S)-1,2,3,4-tetrahydroisoquinolin-3-yl)ethyl)carbamoyl)pyrimidin-4-yl)oxy)piperidine-1-carboxylate dihydrochloride]"
8,593,"CC(C)Oc1ccc(C(=O)NC[C@@H](O)[C@@H]2Cc3ccccc3CN2)cn1 [Example 59, N-((R)-2-Hydroxy-2-((S)-1,2,3,4-tetrahydroisoquinolin-3-yl)ethyl)-6-isopropoxynicotinamide]"
9,846,"CC(C)N(C)C(=O)c1ccc(C(=O)NC[C@@H](O)[C@@H]2Cc3ccccc3CN2)cc1 [Example 39, N^1-((R)-2-Hydroxy-2-((S)-1,2,3,4-tetrahydroisoquinolin-3-yl)ethyl)-N^4-isopropyl-N^4-methylterephthalamide]"
10,947,"O=C(NC[C@@H](O)[C@@H]1Cc2ccccc2CN1)c1ccc(C(=O)N2CCCC2)cc1 [Example 90, N-((R)-2-Hydroxy-2-((S)-1,2,3,4-tetrahydroisoquinolin-3-yl)ethyl)-4-(pyrrolidine-1-carbonyl)benzamide]"
11,487,"O=C(NC[C@@H](O)[C@@H]1Cc2ccccc2CN1)c1cccc2c1ncn2C1CCOCC1 [Example 117, N-((R)-2-Hydroxy-2-((S)-1,2,3,4-tetrahydroisoquinolin-3-yl)ethyl)-1-(tetrahydro-2H-pyran-4-yl)-1H-benzo[d]imidazole-4-carboxamide dihydrochloride]"
12,8790,"O=C(NC[C@@H](O)[C@@H]1Cc2ccccc2CN1)c1ccccc1Cl [Example 4, 2-Chloro-N-((R)-2-hydroxy-2-((S)-1,2,3,4-tetrahydroisoquinolin-3-yl)ethyl)benzamide]"
13,780,"O=C(NC[C@@H](O)[C@@H]1Cc2ccccc2CN1)c1ccc(C(=O)N2CC3CC2CO3)cc1 (mixture of isomers) [Example 94, 4-(2-Oxa-5-azabicyclo[2.2.1]heptane-5-carbonyl)-N-((R)-2-hydroxy-2-((S)-1,2,3,4-tetrahydroisoquinolin-3-yl)ethyl)benzamide]"
14,3820,"O=C(NC[C@@H](O)[C@@H]1Cc2ccccc2CN1)c1ccnc(C(F)(F)F)c1 [Example 86, N-((R)-2-Hydroxy-2-((S)-1,2,3,4-tetrahydroisoquinolin-3-yl)ethyl)-2-(trifluoromethyl)isonicotinamide dihydrochloride]"
15,9710,"O=C(NC[C@@H](O)[C@@H]1Cc2ccccc2CN1)c1ccc(C(=O)NC2CCS(=O)(=O)CC2)cc1 [Example 95, N^1-(1,1-Dioxidotetrahydro-2H-thiopyran-4-yl)-N^4-((R)-2-hydroxy-2-((S)-1,2,3,4-tetrahydroisoquinolin-3-yl)ethyl)terephthalamide]"
16,585,"O=C(NC[C@@H](O)[C@@H]1Cc2ccccc2CN1)c1ccc(CC(=O)N2CCCCC2)nc1 [Example 72, N-((R)-2-Hydroxy-2-((S)-1,2,3,4-tetrahydroisoquinolin-3-yl)ethyl)-6-(2-oxo-2-(piperidin-1-yl)ethyl)nicotinamide dihydrochloride]"

# The next lines start with the compound.
row,Compound,IC50 [nM]
1,"O=C(NC[C@@H](O)[C@@H]1Cc2ccccc2CN1)c1ccc2[nH]nnc2c1 [Example 114, N-((R)-2-Hydroxy-2-((S)-1,2,3,4-tetrahydroisoquinolin-3-yl)ethyl)-1H-benzo[d][1,2,3]triazole-5-carboxamide dihydrochloride]",5490
2,"O=C(NC[C@@H](O)[C@@H]1Cc2ccccc2CN1)c1ccc(C(=O)N2C3CCC2CC(O)C3)cc1 (stereo partly drawn) [Example 42, N-((R)-2-Hydroxy-2-((S)-1,2,3,4-tetrahydroisoquinolin-3-yl)ethyl)-4-(3-hydroxy-8-azabicyclo[3.2.1]octane-8-carbonyl)benzamide]",212
3,"O=C(NC[C@@H](O)[C@@H]1Cc2ccccc2CN1)c1ccc(C(=O)N2CCC(O)(C(F)F)CC2)cc1 [Example 30, 4-(4-(Difluoromethyl)-4-hydroxypiperidine-1-carbonyl)-N-((R)-2-hydroxy-2-((S)-1,2,3,4-tetrahydroisoquinolin-3-yl)ethyl)benzamide]",139
4,"O=C(NC[C@@H](O)[C@@H]1Cc2ccccc2CN1)c1ccc2[nH]ncc2c1 [Example 112, N-((R)-2-Hydroxy-2-((S)-1,2,3,4-tetrahydroisoquinolin-3-yl)ethyl)-1H-indazole-5-carboxamide dihydrochloride]",2310
5,"Cc1nnc(-c2ccc(C(=O)NC[C@@H](O)[C@@H]3Cc4ccccc4CN3)cc2)o1 [Example 25, N-((R)-2-Hydroxy-2-((S)-1,2,3,4-tetrahydroisoquinolin-3-yl)ethyl)-4-(5-methyl-1,3,4-oxadiazol-2-yl)benzamide]",1700
6,"COC(=O)N1CCC(Oc2cccc(C(=O)NC[C@@H](O)[C@@H]3Cc4ccccc4CN3)c2)CC1 [Example 60, Methyl 4-(3-(((R)-2-hydroxy-2-((S)-1,2,3,4-tetrahydroisoquinolin-3-yl)ethyl)carbamoyl)phenoxy)piperidine-1-carboxylate]",3300
7,"CS(=O)(=O)N1CCC(NC(=O)c2ccc(C(=O)NC[C@@H](O)[C@@H]3Cc4ccccc4CN3)cc2)CC1 [Example 34, N^1-((R)-2-Hydroxy-2-((S)-1,2,3,4-tetrahydroisoquinolin-3-yl)ethyl)-N^4-(1-(methylsulfonyl)piperidin-4-yl)terephthalamide hydrochloride]",1680
8,"O=C(NC[C@@H](O)[C@@H]1Cc2ccccc2CN1)c1ccc(C(=O)N2C3CCC2COC3)c(C(F)F)c1 [Example 85, 4-(3-Oxa-8-azabicyclo[3.2.1]octane-8-carbonyl)-3-(difluoromethyl)-N-((R)-2-hydroxy-2-((S)-1,2,3,4-tetrahydroisoquinolin-3-yl)ethyl)benzamide]",279
9,"CC(NC(=O)c1ccc(C(=O)N2CCOCC2)cc1)[C@H](O)[C@@H]1Cc2ccccc2CN1 (stereo partly drawn) [Example 110, N-((1S)-1-Hydroxy-1-((S)-1,2,3,4-tetrahydroisoquinolin-3-yl)propan-2-yl)-4-(morpholine-4-carbonyl)benzamide hydrochloride]",1490
10,"CC(=O)N1CCN(C(=O)c2ccc(C(=O)NC[C@@H](O)[C@@H]3Cc4ccccc4CN3)cc2)CC1 [Example 66, 4-(4-Acetylpiperazine-1-carbonyl)-N-((R)-2-hydroxy-2-((S)-1,2,3,4-tetrahydroisoquinolin-3-yl)ethyl)benzamide]",329
11,"O=C(NC[C@@H](O)[C@@H]1Cc2ccccc2CN1)c1cc(OC2CCOCC2)ncc1Cl [Example 75, 5-Chloro-N-((R)-2-hydroxy-2-((S)-1,2,3,4-tetrahydroisoquinolin-3-yl)ethyl)-2-((tetrahydro-2H-pyran-4-yl)oxy)isonicotinamide dihydrochloride]",1200
12,"O=C(NC[C@@H](O)[C@H]1Cc2ccccc2CN1)c1ccc(C(=O)N2CCOCC2)cc1 [Example 54, N—((R)-2-Hydroxy-2-((R)-1,2,3,4-tetrahydroisoquinolin-3-yl)ethyl)-4-(morpholine-4-carbonyl)benzamide hydrochloride]",82100
